Experimental data published in PMC11579512, “Deoxybouvardin-glucoside induces apoptosis in non-small cell lung cancer cells by targeting EGFR/MET and AKT signaling pathway” (EXCLI Journal, 2024).

Experiments:
[1] = tested on: cytochrome c (cytosol); assay: Immunoblot cytosolic cytochrome c in HCC827 and HCC827GR cells; type: cell-based, human
Procedure: Cells were lysed in RIPA buffer, and protein concentration was determined using a Bio-Rad DC Protein Assay kit (Bio-Rad, Hercules, CA, USA). Protein samples from the cell lysates were resolved by sodium dodecyl sulfate-polyacrylamide gel electrophoresis and then transferred onto polyvinylidene fluoride membranes. The membranes were blocked with 3 % or 5 % skim milk and then incubated at 4 °C overnight with the indicated primary antibodies, followed by the corresponding horseradish peroxidase-conjugated secondary antibodies at RT for 2 h. Protein bands were visualized using western blotting luminol reagent solution and ImageQuant LAS 500 (GE Healthcare, Uppsala, Sweden). The density of the bands was quantified using ImageJ software (NIH, Bethesda, MD, USA).
The cells were suspended in plasma membrane extraction buffer [250 mM sucrose, 10 mM HEPES (pH 8.0), 10 mM KCl, 1.5 mM MgCl2• 6H2O, 1 mM EGTA, 1 mM EDTA, 0.1 mM PMSF, 0.01 mg/ml aprotinin, and 0.01 mg/ml leupeptin], and 0.1 % digitonin was added for vortexing (1 min). The supernatant was collected as the cytosolic fraction. The pellet was resuspended in plasma membrane extraction buffer containing 0.5 % Triton X-100. The lysates were centrifuged at 13,000 rpm for 30 min to separate the mitochondrial fraction.

[2] = tested on: HCC827GR cells; assay: Soft agar anchorage-independent growth, HCC827GR; type: cell-based, human; settings: 2 weeks
Procedure: The anchorage-independent cell growth assay was performed in 6-well plates with dual agar layers containing 0.6 % agar (lower layer) and 0.3 % agar (upper layer) supplemented with BME, 2 mM L-glutamine, 5 μg/ml gentamicin, and 10 % FBS. After 2 weeks of incubation, the number of colonies was assessed using a microscope (Leica, Wetzlar, Germany), and the mean colony area was analyzed using i-Solution ^TM software (Vancouver, BC, Canada).

[3] = biological target: T1, MET (Homo sapiens, UniProt P08581); assay: In vitro ADP-Glo kinase assay, MET; type: biochemical
T1 construct: purchased Promega
T1 sequence (P08581 25-1390): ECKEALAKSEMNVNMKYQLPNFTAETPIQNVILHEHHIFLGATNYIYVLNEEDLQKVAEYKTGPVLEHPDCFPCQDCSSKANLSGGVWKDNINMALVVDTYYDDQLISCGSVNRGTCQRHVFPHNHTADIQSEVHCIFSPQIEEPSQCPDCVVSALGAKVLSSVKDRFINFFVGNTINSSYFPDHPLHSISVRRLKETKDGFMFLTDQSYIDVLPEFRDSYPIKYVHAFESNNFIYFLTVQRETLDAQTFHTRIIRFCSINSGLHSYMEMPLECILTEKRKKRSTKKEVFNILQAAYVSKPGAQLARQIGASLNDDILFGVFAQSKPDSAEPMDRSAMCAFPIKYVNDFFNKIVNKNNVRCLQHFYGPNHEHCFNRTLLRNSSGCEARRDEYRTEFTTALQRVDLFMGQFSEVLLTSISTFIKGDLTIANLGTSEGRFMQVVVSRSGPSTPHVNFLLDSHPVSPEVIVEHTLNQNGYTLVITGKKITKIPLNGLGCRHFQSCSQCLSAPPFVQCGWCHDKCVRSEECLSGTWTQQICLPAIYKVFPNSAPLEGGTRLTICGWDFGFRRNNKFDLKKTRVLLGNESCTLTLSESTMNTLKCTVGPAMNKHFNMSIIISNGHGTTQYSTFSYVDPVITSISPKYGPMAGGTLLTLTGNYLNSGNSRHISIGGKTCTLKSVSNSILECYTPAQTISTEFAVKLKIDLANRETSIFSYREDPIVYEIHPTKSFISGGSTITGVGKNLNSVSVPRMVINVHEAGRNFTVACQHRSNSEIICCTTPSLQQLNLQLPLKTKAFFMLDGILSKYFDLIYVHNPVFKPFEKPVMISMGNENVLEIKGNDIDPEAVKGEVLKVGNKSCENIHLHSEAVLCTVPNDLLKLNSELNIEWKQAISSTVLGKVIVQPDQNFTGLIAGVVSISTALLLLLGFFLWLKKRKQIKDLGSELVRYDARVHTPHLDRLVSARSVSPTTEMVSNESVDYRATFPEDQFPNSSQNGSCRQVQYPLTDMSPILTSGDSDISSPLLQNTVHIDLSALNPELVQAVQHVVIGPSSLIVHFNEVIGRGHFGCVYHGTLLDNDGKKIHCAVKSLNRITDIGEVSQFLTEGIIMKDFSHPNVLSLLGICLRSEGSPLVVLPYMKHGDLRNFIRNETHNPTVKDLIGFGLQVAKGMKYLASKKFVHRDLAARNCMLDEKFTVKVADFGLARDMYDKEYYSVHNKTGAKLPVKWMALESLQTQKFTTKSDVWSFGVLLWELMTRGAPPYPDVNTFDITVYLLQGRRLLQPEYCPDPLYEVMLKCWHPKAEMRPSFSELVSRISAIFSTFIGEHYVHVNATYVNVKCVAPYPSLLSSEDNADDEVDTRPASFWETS
Procedure: Subsequently, each well was added with ADP-Glo reagent and incubated for another 40 min. After completion of the kinase reaction, each well was added with kinase activity detection reagent and then incubated for 30 min. Liquid was dispensed with I.DOT (Dispendix, Stuttgart, Germany). Luminescence was measured on a Centro LB 960 microplate luminometer (Berthold Technologies).

[4] = tested on: HCC827 cells; assay: Multi-caspase assay, HCC827; type: cell-based, human; design: Caspase+ cells / Total Caspase+ cells / dead cells (multi-caspase assay) / Live cells (multi-caspase assay): unit not given here; settings: for cells with activated caspases: 48 h, background 6.52 %
Procedure: HaCaT cells were grown in DMEM, whereas HCC827 and HCC827GR cells were grown in RPMI 1640. All culture media were supplemented with FBS (10 %) and P/S (1 %), and the cells were grown at 37 °C in 5 % CO2.

[5] = HCC827, DBG 3 nM, mean of samples 1-3
[6] = HCC827, DBG 6 nM, mean of samples 1-3
[7] = HCC827, DBG 12 nM, mean of samples 1-3

Compound: COc1ccc(C[C@H]2C(=O)N[C@@H](C)C(=O)N(C)[C@H]3Cc4ccc(cc4)Oc4cc(ccc4O[C@@H]4O[C@H](CO)[C@@H](O)[C@H](O)[C@H]4O)C[C@@H](C(=O)N[C@H](C)C(=O)N[C@@H](C)C(=O)N2C)N(C)C3=O)cc1 [DBG, deoxybouvardin glucoside]
- cyto c (cytosol) cyto c/β-tubulin/actin (A) ([1]; HCC827, DBG 3 nM, DBG 0 nM 12.22): 16.55
- cyto c (cytosol) protein Ratio ([1]; HCC827, DBG 3 nM, relative to DBG 12 nM = 1.00, DBG 0 nM 0.18): 0.25
- cyto c (cytosol) cyto c/β-tubulin/actin (A) ([1]; HCC827, DBG 6 nM, DBG 0 nM 12.22): 47.59
- cyto c (cytosol) protein Ratio ([1]; HCC827, DBG 6 nM, relative to DBG 12 nM = 1.00, DBG 0 nM 0.18): 0.72
- cyto c (cytosol) protein Ratio ([1]; HCC827, DBG 12 nM (reference of the ratio, 1.00), DBG 0 nM 0.18): 1.00
- cyto c (cytosol) cyto c/β-tubulin/actin (A) ([1]; HCC827, DBG 12 nM, DBG 0 nM 12.22): 66.24
- cyto c (cytosol) cyto c/β-tubulin/actin (A) ([1]; HCC827GR, DBG 3 nM, DBG 0 nM 5.99): 33.57
- cyto c (cytosol) protein Ratio ([1]; HCC827GR, DBG 3 nM, relative to DBG 12 nM = 1.00, DBG 0 nM 0.07): 0.41
- cyto c (cytosol) cyto c/β-tubulin/actin (A) ([1]; HCC827GR, DBG 6 nM, DBG 0 nM 5.99): 49.49
- cyto c (cytosol) protein Ratio ([1]; HCC827GR, DBG 6 nM, relative to DBG 12 nM = 1.00, DBG 0 nM 0.07): 0.60
- cyto c (cytosol) protein Ratio ([1]; HCC827GR, DBG 12 nM (reference of the ratio, 1.00), DBG 0 nM 0.07): 1.00
- cyto c (cytosol) cyto c/β-tubulin/actin (A) ([1]; HCC827GR, DBG 12 nM, DBG 0 nM 5.99): 82.76
- cytochrome c release ([1]; NSCLC cells, DBG, cytosolic and mitochondrial fractions): released from the mitochondria
- colony number, Control % ([2]; DBG 3 nM): 40.00%
- colony size, Control % ([2]; DBG 3 nM): 77.33%
- colony number, Control % ([2]; DBG 6 nM): 13.10%
- colony size, Control % ([2]; DBG 6 nM): 72.67%
- colony number, Control % ([2]; DBG 12 nM): 0.00%
- colony size, Control % ([2]; DBG 12 nM): 0.00%
- IC50 ([3]; ADP-Glo, MET 4 ng, RT, 60 min, luminescence, n=3): 7.26 nM
- kinase activity, in words ([3]; DBG 3, 6, 12 nM): significantly inhibited
- cells with activated caspases ([4]; DBG 3 nM): 16.23%
- cells with activated caspases ([4]; DBG 6 nM): 24.10%
- cells with activated caspases ([4]; DBG 12 nM): 25.94%
- Caspase+ cells [4, 5]: 4.43
- Caspase+/dead cells [4, 5]: 11.80
- Live cells (multi-caspase assay) [4, 5]: 83.72
- Total Caspase+ cells [4, 5]: 16.23
- dead cells (multi-caspase assay) [4, 5]: 0.05
- Caspase+ cells ([4]; HCC827, DBG 3 nM, sample 1): 5.19
- Caspase+/dead cells ([4]; HCC827, DBG 3 nM, sample 1): 10.83
- Live cells (multi-caspase assay) ([4]; HCC827, DBG 3 nM, sample 1): 83.88
- Total Caspase+ cells ([4]; HCC827, DBG 3 nM, sample 1): 16.02
- dead cells (multi-caspase assay) ([4]; HCC827, DBG 3 nM, sample 1): 0.10
- Caspase+ cells ([4]; HCC827, DBG 3 nM, sample 2): 3.91
- Caspase+/dead cells ([4]; HCC827, DBG 3 nM, sample 2): 12.71
- Live cells (multi-caspase assay) ([4]; HCC827, DBG 3 nM, sample 2): 83.38
- Total Caspase+ cells ([4]; HCC827, DBG 3 nM, sample 2): 16.62
- dead cells (multi-caspase assay) ([4]; HCC827, DBG 3 nM, sample 2): 0.00
- Caspase+ cells ([4]; HCC827, DBG 3 nM, sample 3): 4.20
- Caspase+/dead cells ([4]; HCC827, DBG 3 nM, sample 3): 11.85
- Live cells (multi-caspase assay) ([4]; HCC827, DBG 3 nM, sample 3): 83.89
- Total Caspase+ cells ([4]; HCC827, DBG 3 nM, sample 3): 16.06
- dead cells (multi-caspase assay) ([4]; HCC827, DBG 3 nM, sample 3): 0.05
- Caspase+ cells [4, 6]: 9.84
- Caspase+/dead cells [4, 6]: 14.26
- Live cells (multi-caspase assay) [4, 6]: 75.85
- Total Caspase+ cells [4, 6]: 24.10
- dead cells (multi-caspase assay) [4, 6]: 0.00
- Caspase+ cells ([4]; HCC827, DBG 6 nM, sample 1): 10.64
- Caspase+/dead cells ([4]; HCC827, DBG 6 nM, sample 1): 13.33
- Live cells (multi-caspase assay) ([4]; HCC827, DBG 6 nM, sample 1): 76.03
- Total Caspase+ cells ([4]; HCC827, DBG 6 nM, sample 1): 23.97
- dead cells (multi-caspase assay) ([4]; HCC827, DBG 6 nM, sample 1): 0.00
- Caspase+ cells ([4]; HCC827, DBG 6 nM, sample 2): 9.67
- Caspase+/dead cells ([4]; HCC827, DBG 6 nM, sample 2): 14.53
- Live cells (multi-caspase assay) ([4]; HCC827, DBG 6 nM, sample 2): 75.65
- Total Caspase+ cells ([4]; HCC827, DBG 6 nM, sample 2): 24.20
- dead cells (multi-caspase assay) ([4]; HCC827, DBG 6 nM, sample 2): 0.00
- Caspase+ cells ([4]; HCC827, DBG 6 nM, sample 3): 9.21
- Caspase+/dead cells ([4]; HCC827, DBG 6 nM, sample 3): 14.92
- Live cells (multi-caspase assay) ([4]; HCC827, DBG 6 nM, sample 3): 75.87
- Total Caspase+ cells ([4]; HCC827, DBG 6 nM, sample 3): 24.13
- dead cells (multi-caspase assay) ([4]; HCC827, DBG 6 nM, sample 3): 0.00
- Caspase+ cells [4, 7]: 16.76
- Caspase+/dead cells [4, 7]: 9.18
- Live cells (multi-caspase assay) [4, 7]: 73.91
- Total Caspase+ cells [4, 7]: 25.94
- dead cells (multi-caspase assay) [4, 7]: 0.08
- Caspase+ cells ([4]; HCC827, DBG 12 nM, sample 1): 17.38
- Caspase+/dead cells ([4]; HCC827, DBG 12 nM, sample 1): 9.37
- Live cells (multi-caspase assay) ([4]; HCC827, DBG 12 nM, sample 1): 73.00
- Total Caspase+ cells ([4]; HCC827, DBG 12 nM, sample 1): 26.75
- dead cells (multi-caspase assay) ([4]; HCC827, DBG 12 nM, sample 1): 0.05
- Caspase+ cells ([4]; HCC827, DBG 12 nM, sample 2): 16.62
- Caspase+/dead cells ([4]; HCC827, DBG 12 nM, sample 2): 9.35
- Live cells (multi-caspase assay) ([4]; HCC827, DBG 12 nM, sample 2): 73.88
- Total Caspase+ cells ([4]; HCC827, DBG 12 nM, sample 2): 25.97
- dead cells (multi-caspase assay) ([4]; HCC827, DBG 12 nM, sample 2): 0.15
- Caspase+ cells ([4]; HCC827, DBG 12 nM, sample 3): 16.27
- Caspase+/dead cells ([4]; HCC827, DBG 12 nM, sample 3): 8.82
- Live cells (multi-caspase assay) ([4]; HCC827, DBG 12 nM, sample 3): 74.86
- Total Caspase+ cells ([4]; HCC827, DBG 12 nM, sample 3): 25.09
- dead cells (multi-caspase assay) ([4]; HCC827, DBG 12 nM, sample 3): 0.05
